{"source": "patent US11001838B2", "about": "“Platform for screening phosphomevalonate decarboxylase” (The Regents of the University of California, priority 2017, dated 2021)", "key": {"[1]": {"molecular_target": "T1, Saccharomyces cerevisiae diphosphomevalonate decarboxylase (PMDsc, SEQ ID NO: 1) variant Y19H (Saccharomyces cerevisiae, UniProt P32377, Y19H)", "T1 construct": "His tag; made in house; host or cells: E. coli Rosetta (DE3)", "T1 sequence (P32377 1-396 Y19H)": "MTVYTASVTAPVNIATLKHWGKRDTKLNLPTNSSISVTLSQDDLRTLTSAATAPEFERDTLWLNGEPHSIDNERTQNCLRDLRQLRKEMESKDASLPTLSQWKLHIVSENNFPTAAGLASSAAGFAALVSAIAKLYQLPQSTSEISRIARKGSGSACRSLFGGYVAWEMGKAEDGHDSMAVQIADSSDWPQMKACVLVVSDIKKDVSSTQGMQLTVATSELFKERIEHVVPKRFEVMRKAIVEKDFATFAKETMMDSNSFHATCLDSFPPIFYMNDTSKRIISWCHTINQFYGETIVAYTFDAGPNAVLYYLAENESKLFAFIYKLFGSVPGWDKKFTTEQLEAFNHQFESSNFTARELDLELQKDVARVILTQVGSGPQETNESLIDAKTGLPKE", "test": "In vitro kinetics of MVAP decarboxylation by PMDsc Y19H (coupled assay)", "assay_type": "biochemical"}, "[2]": {"molecular_target": "T2, Saccharomyces cerevisiae diphosphomevalonate decarboxylase (PMDsc), wild type, SEQ ID NO: 1 (Saccharomyces cerevisiae, UniProt P32377)", "T2 sequence (P32377 1-396)": "T1 sequence (P32377 1-396 Y19H) with H19Y", "test": "In vitro kinetics of MVAP decarboxylation by PMDsc WT (pyruvate kinase/lactate dehydrogenase coupled assay)", "procedure": "(§1) This turnover number (kobs) depends upon each mutant's kcat, KM, and KI, yielding a more accurate assessment of the turnover conditions in vivo (Kang et al., 2016).\n(§2) In vitro enzyme kinetics of PMDsc were performed as described in the previous study (Kang et al., 2016). Briefly, enzymatic activity was determined by a spectrophotometric assay quantifying ADP product formation via the pyruvate kinase/lactate dehydrogenase coupled enzyme assay. Assay mixtures were prepared in 150 μL total volume containing 50 mM HEPES-KOH (pH 7.5), 10 mM MgCl2, 400 μM phosphoenolpyruvate, 400 μM NADH, 4 mM ATP, and 25 U of pyruvate kinase/lactate dehydrogenase. The reaction was initiated by enzyme after incubating PMDsc substrate and cofactor for fifteen minutes with coupled assay components. The MVAP was varied from 0.100-4.0 mM, and the reaction velocity was determined by monitoring the absorbance at 340 nm in a Spectramax 384plus microplate reader (Molecular Devices, USA). To obtain kinetic data relevant to non-competitive substrate inhibition, MVAP was varied from 0.100-100 mM. Enzyme concentration (ε=56,630 M^−1 cm^−1) was determined spectrophotometrically at 280 nm with a NanoDrop ND-1000 spectrophotometer. kcat and KM were derived for PMDsc mutants by fitting the initial velocities measured from 0.100-4.0 mM MVAP to the Michaelis-Menten equation; KI was determined for select mutants by fitting initial velocities measured from 0.100-100 mM MVAP to the non-competitive substrate inhibition equation. All kinetic analysis was performed in Graphpad Prism, version 7.0a."}, "[3]": {"molecular_target": "T3, Saccharomyces cerevisiae diphosphomevalonate decarboxylase (PMDsc, SEQ ID NO: 1) variant M212Q (Saccharomyces cerevisiae, UniProt P32377, M212Q)", "T3 construct": "His tag; made in house; host or cells: E. coli Rosetta (DE3)", "T3 sequence (P32377 1-396 M212Q)": "T1 sequence (P32377 1-396 Y19H) with H19Y, M212Q", "test": "In vitro kinetics of MVAP decarboxylation by PMDsc M212Q (coupled assay)", "assay_type": "biochemical", "conditions": "MVAP 0.100-4.0 mM, 4 mM ATP, pH 7.5; brackets: standard error"}, "[4]": {"molecular_target": "T4, Saccharomyces cerevisiae diphosphomevalonate decarboxylase (PMDsc, SEQ ID NO: 1) variant R74G (Saccharomyces cerevisiae, UniProt P32377, R74G)", "T4 sequence (P32377 1-396 R74G)": "T1 sequence (P32377 1-396 Y19H) with H19Y, R74G", "test": "In vitro kinetics of MVAP decarboxylation by PMDsc R74G (coupled assay)", "procedure": "as §1, §2"}, "[5]": {"molecular_target": "T2, Saccharomyces cerevisiae diphosphomevalonate decarboxylase (PMDsc), wild type, SEQ ID NO: 1", "design": "His tag; made in house; host or cells: E. coli (Rosetta (DE3) is stated for the mutant plasmids)", "conditions": "alternative substrate MVAP; Kang et al., 2016; Krepkiy and Miziorko, 2004; cited from earlier work"}, "[6]": {"conditions": "MVAP 0.100-4.0 mM, 4 mM ATP, pH 7.5, brackets: standard error"}, "[7]": {"conditions": "observed turnover number calculated at 100 mM MVAP, noncompetitive substrate inhibition"}}, "note": "Changes are numbered by the printed parent chain.", "data": [{"smiles": "C[C@@](O)(CCOP(=O)(O)O)CC(=O)O", "note": "[MVAP, mevalonate 5-phosphate]", "values": [{"measurement": "kcat/KM", "setting": "[1]; [6]", "value": "780 ± 60", "unit": "M⁻¹ s⁻¹"}, {"measurement": "increase of kcat/KM compared to wild type", "setting": "[1]; Y19H versus wild type PMDsc, MVAP", "value": "about 10 fold"}, {"measurement": "Km", "setting": "[2]; [6]", "value": 2300, "unit": "µM"}, {"measurement": "kcat", "setting": "[2]; [6]", "value": 0.15, "unit": "s⁻¹"}, {"measurement": "kobs", "setting": "[2]; [7]", "value": 0.02, "unit": "s⁻¹"}, {"measurement": "kcat/KM", "setting": "[3]", "value": "500 ± 100", "unit": "M⁻¹ s⁻¹"}, {"measurement": "kcat", "setting": "[4]; [6]", "value": 0.14, "unit": "s⁻¹"}, {"measurement": "kobs", "setting": "[4]; [7]", "value": 0.07, "unit": "s⁻¹"}, {"measurement": "kcat (MVAP)", "setting": "[5]", "value": 0.14, "unit": "s⁻¹"}]}]}
